Experimental data taken from PubChem BioAssay AID248 (DTP/NCI, 2004).
Values joined by “and” are separate entries in the source; they are usually repeats but may differ in a detail not shown here. Equal entries are not always repeated. Inconclusive results and toxic doses are left out. No stated cut-off is given here; in the data, active means T/C of 150% or more; inactive means T/C below 125%. Peptide text beside a SMILES is read from it. * marks the point of attachment. CH2Cl = ClC*

System: L1210 leukemia ip in BDF1 mice, survival T/C
Assay: NCI In Vivo Anticancer Drug Screen. Data for tumor model L1210 Leukemia (intraperitoneal) in B6D2F1 (BDF1) mice
Settings: endpoint: mean survival time, higher = longer survival
Summary of the method: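 In this screen, tumor-bearing mice given compound are compared to those given vehicle, and their survival values are reported as a treated-to-control quotient.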

[1] = dose: 100.0 mg/kg/injection, schedule: Q04DX003 (ip), vehicle: Klucel (hydroxypropylcellulose) (HPC)
[2] = dose: 100.0 mg/kg/injection, schedule: Q01DX009 (ip), vehicle: Klucel (hydroxypropylcellulose) (HPC)
[3] = dose: 200.0 mg/kg/injection, schedule: Q01DX009 (ip), vehicle: Klucel (hydroxypropylcellulose) (HPC)
[4] = dose: 200.0 mg/kg/injection, schedule: Q04DX003 (ip), vehicle: Klucel (hydroxypropylcellulose) (HPC)
[5] = dose: 400.0 mg/kg/injection, schedule: Q04DX003 (ip), vehicle: Klucel (hydroxypropylcellulose) (HPC)
[6] = dose: 100.0 mg/kg/injection, schedule: Q04DX003 (ip), vehicle: saline with Tween-80
[7] = dose: 200.0 mg/kg/injection, schedule: Q04DX003 (ip), vehicle: saline with Tween-80
[8] = dose: 400.0 mg/kg/injection, schedule: Q04DX003 (ip), vehicle: saline with Tween-80
[9] = dose: 100.0 mg/kg/injection, schedule: Q04DX002 (ip), vehicle: saline with Tween-80
[10] = dose: 200.0 mg/kg/injection, schedule: Q04DX002 (ip), vehicle: saline with Tween-80
[11] = dose: 400.0 mg/kg/injection, schedule: Q04DX002 (ip), vehicle: saline with Tween-80
[12] = dose: 12.5 mg/kg/injection, schedule: Q04DX003 (ip), vehicle: Klucel (hydroxypropylcellulose) (HPC)
[13] = dose: 25.0 mg/kg/injection, schedule: Q04DX003 (ip), vehicle: Klucel (hydroxypropylcellulose) (HPC)
[14] = dose: 50.0 mg/kg/injection, schedule: Q04DX003 (ip), vehicle: Klucel (hydroxypropylcellulose) (HPC)
[15] = dose: 50.0 mg/kg/injection, schedule: Q01DX001 (ip), vehicle: Klucel (hydroxypropylcellulose) (HPC)
[16] = dose: 100.0 mg/kg/injection, schedule: Q01DX001 (ip), vehicle: Klucel (hydroxypropylcellulose) (HPC)
[17] = dose: 200.0 mg/kg/injection, schedule: Q01DX001 (ip), vehicle: Klucel (hydroxypropylcellulose) (HPC)
[18] = dose: 400.0 mg/kg/injection, schedule: Q01DX001 (ip), vehicle: Klucel (hydroxypropylcellulose) (HPC)

Measured: T/C

O=[N+]([O-])c1cc([N+](=O)[O-])c2ccc(S(=O)(=O)O)cc2c1O
inactive: dose: 20.0 mg/kg/injection, schedule: Q01DX009 (ip), vehicle: Klucel (hydroxypropylcellulose) (HPC) 97 % of control | dose: 20.0 mg/kg/injection, schedule: Q04DX003 (ip), vehicle: Klucel (hydroxypropylcellulose) (HPC) 110 % of control | dose: 40.0 mg/kg/injection, schedule: Q01DX009 (ip), vehicle: Klucel (hydroxypropylcellulose) (HPC) 100 % of control | dose: 40.0 mg/kg/injection, schedule: Q04DX003 (ip), vehicle: Klucel (hydroxypropylcellulose) (HPC) 109 % of control | dose: 80.0 mg/kg/injection, schedule: Q01DX009 (ip), vehicle: Klucel (hydroxypropylcellulose) (HPC) 103 % of control | dose: 80.0 mg/kg/injection, schedule: Q04DX003 (ip), vehicle: Klucel (hydroxypropylcellulose) (HPC) 105 % of control | [1] 106 % of control

CN(N)C(=O)Nc1cccc(Cl)c1
inactive: dose: 75.0 mg/kg/injection, schedule: Q01DX001 (ip), vehicle: carboxymethylcellulose (CMC) 102 % of control | dose: 150.0 mg/kg/injection, schedule: Q01DX001 (ip), vehicle: carboxymethylcellulose (CMC) 107 % of control | dose: 300.0 mg/kg/injection, schedule: Q01DX001 (ip), vehicle: carboxymethylcellulose (CMC) 107 % of control

CN(C)c1ccc(/C=N/NC(=O)c2ccncc2)c(Cl)c1
inactive: [2] 96 % of control | [3] 89 % of control | dose: 400.0 mg/kg/injection, schedule: Q01DX009 (ip), vehicle: Klucel (hydroxypropylcellulose) (HPC) 91 % of control

CC(=O)OCC(C)(COC(C)=O)[N+](=O)[O-]
inactive: [1] 95 % of control | [4] 92 % of control | [5] 97 % of control

Nc1nc2c(c(-c3ccc(Cl)cc3)n1)CN(Cc1ccccc1)C2=O
inactive: dose: 50.0 mg/kg/injection, schedule: Q01DX009 (ip), vehicle: saline 98 % of control | dose: 100.0 mg/kg/injection, schedule: Q01DX009 (ip), vehicle: saline 104 % of control | dose: 100.0 mg/kg/injection, schedule: Q04DX003 (ip), vehicle: saline 101 % of control | dose: 200.0 mg/kg/injection, schedule: Q01DX009 (ip), vehicle: saline 106 % of control | dose: 200.0 mg/kg/injection, schedule: Q04DX003 (ip), vehicle: saline 100 % of control | dose: 400.0 mg/kg/injection, schedule: Q04DX003 (ip), vehicle: saline 89 % of control

O=C(CSc1cc(Cl)ccc1Cl)Nc1ccccc1
inactive: dose: 100.0 mg/kg/injection, schedule: Q01DX001 (ip), vehicle: other 95 % of control | dose: 200.0 mg/kg/injection, schedule: Q01DX001 (ip), vehicle: other 96 % of control | dose: 400.0 mg/kg/injection, schedule: Q01DX001 (ip), vehicle: other 96 % of control

CCCCCCCCCCCCCCCCOc1ccc(S(=O)(=O)c2ccccc2)cc1[N+](=O)[O-]
inactive: [1] 91 % of control | [4] 94 % of control | dose: 400.0 mg/kg/injection, schedule: Q01DX009 (ip), vehicle: saline sonified 96 % of control | [5] 96 % of control

CCOC(CCC#N)c1ccccc1 (centres undefined)
inactive: [6] 95 % of control | dose: 125.0 mg/kg/injection, schedule: Q01DX009 (ip), vehicle: saline with Tween-80 113 % of control | [7] 98 % of control | dose: 235.0 mg/kg/injection, schedule: Q01DX009 (ip), vehicle: saline with Tween-80 96 % of control | [8] 92 % of control

O=C(NCCO)Nc1cccc2c1CCCC2
inactive: [9] 108 % of control | [10] 104 % of control | [11] 87 % of control

Cc1c(Cl)cc(Cl)c2ncccc12
inactive: [12] 95 % of control | [13] 86 % of control | [14] 96 % of control

c1ccc(C2(c3ccccc3)CC([P+](c3ccccc3)(c3ccccc3)c3ccccc3)=NN2CC[P+](c2ccccc2)(c2ccccc2)c2ccccc2)cc1
inactive: dose: 1.56 mg/kg/injection, schedule: Q01DX001 (ip), vehicle: saline 107 % of control | dose: 3.12 mg/kg/injection, schedule: Q01DX001 (ip), vehicle: saline 91 % of control | dose: 6.25 mg/kg/injection, schedule: Q01DX001 (ip), vehicle: saline 108 % of control and 91 % of control

O=C(OCc1ccccc1)C(=O)OCc1ccccc1
inactive: [2] 90 % of control | [1] 95 % of control | [3] 103 % of control | [4] 100 % of control | [5] 100 % of control

CC(=O)NC(CC(C)C)C(=O)NC(Cc1ccccc1)C(=O)CCl (stereo not drawn) (Ac-Leu-Phe-CH2Cl; configuration not given here)
inactive: dose: 100.0 mg/kg/injection, schedule: Q04DX002 (ip), vehicle: Klucel (hydroxypropylcellulose) (HPC) 94 % of control | dose: 200.0 mg/kg/injection, schedule: Q04DX002 (ip), vehicle: Klucel (hydroxypropylcellulose) (HPC) 98 % of control | dose: 400.0 mg/kg/injection, schedule: Q04DX002 (ip), vehicle: Klucel (hydroxypropylcellulose) (HPC) 102 % of control

O=C1c2ccccc2C(=O)N1c1ccccc1-c1ccccc1
inactive: dose: 25.0 mg/kg/injection, schedule: Q01DX001 (ip), vehicle: Klucel (hydroxypropylcellulose) (HPC) 95 % of control | [15] 103 % of control | [16] 101 % of control and 121 % of control | [17] 93 % of control and 97 % of control | [18] 89 % of control

CNC(=O)O/N=C(/SC)C(C)C
inactive: dose: 5.0 mg/kg/injection, schedule: Q01DX001 (ip), vehicle: saline 100 % of control | dose: 10.0 mg/kg/injection, schedule: Q01DX001 (ip), vehicle: saline 100 % of control

COC(=O)C1C=CCC=C1OC (centres undefined)
inactive: [6] 96 % of control | [7] 105 % of control | [8] 91 % of control

CCCCCCCCCCCCCCCCOc1c(Br)cc(Br)cc1Br
inactive: [16] 87 % of control | [17] 90 % of control | [18] 105 % of control

COc1ccc(C)nn1
inactive: dose: 100.0 mg/kg/injection, schedule: Q04DX002 (ip), vehicle: saline 106 % of control | dose: 200.0 mg/kg/injection, schedule: Q04DX002 (ip), vehicle: saline 106 % of control | dose: 400.0 mg/kg/injection, schedule: Q04DX002 (ip), vehicle: saline 122 % of control

CC(=O)C1(C)OC(c2ccc(F)cc2)=NC1=O (centres undefined)
inactive: dose: 100.0 mg/kg/injection, schedule: Q01DX001 (ip), vehicle: saline 102 % of control | dose: 200.0 mg/kg/injection, schedule: Q01DX001 (ip), vehicle: saline 102 % of control | dose: 400.0 mg/kg/injection, schedule: Q01DX001 (ip), vehicle: saline 98 % of control

CCCC[C@H]1C(=O)O[C@H](C)[C@H](NC(=O)c2cccc(NC=O)c2O)C(=O)O[C@@H](C)[C@@H]1OC(=O)CC(C)C
inactive: dose: 0.5 mg/kg/injection, schedule: Q01DX001 (ip), vehicle: carboxymethylcellulose (CMC) 92 % of control | dose: 1.0 mg/kg/injection, schedule: Q01DX001 (ip), vehicle: carboxymethylcellulose (CMC) 101 % of control | dose: 2.0 mg/kg/injection, schedule: Q01DX001 (ip), vehicle: carboxymethylcellulose (CMC) 94 % of control

CCOC(=O)c1c(/N=C/c2ccc3c(c2)OCO3)sc2c1CCCC2
inactive: [9] 98 % of control | [10] 95 % of control | [11] 95 % of control

C=C1C(=O)OC2/C=C(\C)CC(O)/C=C(/C)CCC12 (centres undefined)
inactive: [12] 96 % of control | [13] 105 % of control | [14] 100 % of control

OC(COc1cccc2ccccc12)CN1CC=C(c2ccccc2)CC1 (centres undefined)
inactive: dose: 12.5 mg/kg/injection, schedule: Q01DX009 (ip), vehicle: Klucel (hydroxypropylcellulose) (HPC) 103 % of control | dose: 25.0 mg/kg/injection, schedule: Q01DX009 (ip), vehicle: Klucel (hydroxypropylcellulose) (HPC) 100 % of control | dose: 50.0 mg/kg/injection, schedule: Q01DX009 (ip), vehicle: Klucel (hydroxypropylcellulose) (HPC) 101 % of control | [2] 100 % of control

CC(C)=CCOC(N)=O
inactive: [1] 95 % of control | [4] 104 % of control | [5] 109 % of control

O=[N+]([O-])c1ccc(C2=NC(c3ccccc3)CO2)cc1 (centres undefined)
inactive: [15] 96 % of control | [16] 112 % of control | [17] 94 % of control
